Reference: US20230012368A1 (Hoffmann-La Roche Inc., priority 2018, published 2023)
Counter-ions that a name gives are not always drawn.

Each compound was assayed on Acinetobacter baumannii ATCC 17978 (assay: Antimicrobial susceptibility testing: 90% growth inhibitory concentration (IC90) determination). Details: 90% growth inhibitory concentration; Acinetobacter baumannii ATCC17978; Iso-Sensitest broth, OD 600 nm over 16h; read-out: ATCC17978 IC90.
Format: cell-based
Outline: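 Growth of the Acinetobacter baumannii strain was followed by optical density at 600 nm every 20 minutes for 16h at 35±2° C. Inoculum was ~5×10^(5) CFU/ml in Iso-Sensitest medium, with twofold compound dilutions (e.g. 50 to 0.097 μM final). The 90% inhibitory concentration was derived in log-phase growth.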

| Compound | IC90 |
| --- | --- |
| CCc1cc(Nc2nccn3c(-c4ccc(OC)c(F)c4F)cnc23)ccc1C(=O)NCC(=O)N(C)CCNC [Example 158, 4-((3-(2,3-difluoro-4-methoxyphenyl)imidazo[1,2-a]pyrazin-8-yl)amino)-2-ethyl-N-(2-(methyl(2-(methylamino)ethyl)amino)-2-oxoethyl)benzamide; formic acid] | 0.16 µM |

Same assay, conditions: Acinetobacter baumannii, ATCC17978, 16 h, 90% growth inhibitory concentration; Acinetobacter baumannii ATCC17978; Iso-Sensitest broth, OD 600 nm over 16h; read-out: ATCC17978 IC90

| Compound | IC90 |
| --- | --- |
| Cc1cc(Nc2nccn3c(-c4ccc(Cl)c(F)c4F)cnc23)ccc1C(=O)NCC1CCNCC1 [Example 253, 4-[[3-(4-chloro-2,3-difluorophenyl)imidazo[1,2-a]pyrazin-8-yl]amino]-2-methyl-N-(piperidin-4-ylmethyl)benzamide; hydrochlo-ride] | 2.9 µM |
| C/C=C/c1cc(Nc2nccn3c(-c4ccc(OC(F)F)cc4)cnc23)ccc1C(=O)NC [Example 151, (E)-4-((3-(4-(Difluoromethoxy)phenyl)imidazo[1,2-a]pyrazin-8-yl)amino)-N-methyl-2-(prop-1-en-1-yl)benzamide] | 2 µM |
| CCc1cc(Nc2nccn3c(-c4ccc(OC)c(F)c4F)cnc23)ccc1C(=O)NCC(O)CNC(=O)CCN (stereo not drawn) [Example 146, N-[3-(3-aminopropanoyl-amino)-2-hydroxy-propyl]-4-[[3-(2,3-difluoro-4-methoxy-phenyl)imidazo[1,2-a]pyrazin-8-yl]amino]-2-ethyl-benzamide hydrochloride] | 0.19 µM |
| COc1ccc(-c2cnc3c(Nc4ccc(C(=O)NCCCN5CCNC(=O)C5)c(C)c4)nccn23)c(F)c1F [Example 65, 4-((3-(2,3-difluoro-4-methoxyphenyl)imidazo [1,2-a]pyrazin-8-yl)amino)-2-methyl-N-(3-(3-oxopiperazin-1-yl)propyl)benzamide] | 0.12 µM |
| CC(=O)N1CCC(CCN(C)C(=O)c2ccc(Nc3nccn4c(-c5ccc(OC(F)F)cc5)cnc34)cc2C)CC1 [Example 204, N-[2-(1-acetylpiperidin-4-yl)ethyl]-4-[[3-[4-(difluoromethoxy)phenyl]im-idazo[1,2-a]pyrazin-8-yl]amino]-N,2-dimethylbenzamide] | 0.53 µM |
| COc1ccc(-c2cnc3c(Nc4ccc(C(=O)NCCC5CCNCC5)c(C)c4)nccn23)cc1 [Example 191, 4-[[3-(4-methoxyphenyl)imidazo[1,2-a]pyrazin-8-yl]amino]-2-methyl-N-(2-piperidin-4-ylethyl)benzamide;hydrochlo-ride] | 0.33 µM |
| COC(=O)[C@@H](N)CCCCNC(=O)c1ccc(Nc2nccn3c(-c4ccc(OC(F)F)cc4)cnc23)cc1C [Example 226, methyl (2S)-2-amino-6-[[4-[[3-[4-(difluoromethoxy)phenyl]im-idazo[1,2-a]pyrazin-8-yl]amino]-2-methylbenzoyl]amino]hexa-noate;hydrochloride] | 1.1 µM |
| COc1ccc(-c2cnc3c(Nc4ccc(C(=O)NCCN)c(C)c4)nccn23)cc1 [Example 31, N-(2-aminoethyl)-4-((3-(4-methoxyphenyl)imidazo [1,2-a]pyrazin-8-yl)amino)-2-methylbenzamide] | 2.9 µM |
| CCc1cc(Nc2nccn3c(-c4ccc(OC)cc4F)cnc23)ccc1C(=O)NCCCN [Example 280, N-(3-aminopropyl)-2-ethyl-4-[[3-(2-fluoro-4-methoxyphenyl)imidazo[1,2-a]pyrazin-8-yl]amino]benzamide;hydrochlo-ride] | 0.88 µM |
| COc1ccc(-c2cnc3c(Nc4ccc(C(=O)NCC5CCCOC5)c(C)c4)nccn23)cc1F (stereo not drawn) [Example 72, 4-((3-(3-fluoro-4-methoxyphenyl)imidazo [1,2-a]pyrazin-8-yl)amino)-2-methyl-N-((tetrahydro-2H-pyran-3-yl)methyl)benzamide] | 1 µM |
| Cc1cc(Nc2nccn3c(-c4ccc(OC(F)F)cc4)cnc23)ccc1C(=O)NCCCCN1CCOCC1 [Example 197, 4-[[3-[4-(difluoromethoxy)phenyl]im-idazo[1,2-a]pyrazin-8-yl]amino]-2-methyl-N-(4-morpholin-4-ylbutyl)benzamide] | 0.4 µM |
| CCc1cc(Nc2nccn3c(-c4ccc(OC)c(F)c4F)cnc23)ccc1C(=O)NCC1CN(C)C1 [Example 297, 4-[[3-(2,3-difluoro-4-methoxyphenyl)imidazo[1,2-a]pyrazin-8-yl]amino]-2-ethyl-N-[(1-methylazetidin-3-yl)methyl]benzamide] | 0.15 µM |

Further lines, results first:

| IC90 | Compound |
| --- | --- |
| 0.21 µM | CCc1cc(Nc2nccn3c(-c4ccc(OC)c(F)c4F)cnc23)ccc1C(=O)NCC(O)CNC(=O)CCCN (stereo not drawn) [Example 410, N-(3-(4-aminobutanamido)-2-hydroxypropyl)-4-((3-(2,3-difluoro-4-methoxyphenyl)imidazo[1,2-a]pyrazin-8-yl)amino)-2-ethylbenzamide hydrochloride] |
| 0.35 µM | CCc1cc(Nc2nccn3c(-c4ccc(OC)c(F)c4F)cnc23)ccc1C(=O)NCC(O)CN (stereo not drawn) [Example 334, N-(3-amino-2-hydroxypropyl)-4-[[3-(2,3-difluoro-4-methoxyphenyl)imidazo[1,2-a]pyrazin-8-yl]amino]-2-ethylbenzamide] |
| 0.05 µM | Cc1cc(Nc2nccn3c(-c4ccc(OCC#N)c(F)c4F)cnc23)ccc1C(=O)NCCCNC(=O)[C@@H]1C[C@@H](O)CN1 [Example 357, (2S,4R)-N-[3-[[4-[[3-[4-(cyanomethoxy)-2,3-difluorophenyl]imidazo[1,2-a]pyrazin-8-yl]amino]-2-methylbenzoyl]amino]propyl]-4-hydroxypyrrolidine-2-carboxamide] |
| 0.19 µM | CCc1cc(Nc2nccn3c(-c4ccc(OC)c(F)c4F)cnc23)ccc1C(=O)NCCN1CCC(C(N)=O)C1 (stereo not drawn) [Example 561, 1-[2-[[4-[[3-(2,3-difluoro-4-methoxy-phenyl)imidazo[1,2-a]pyrazin-8-yl]amino]-2-ethyl-benzoyl]amino]ethyl]pyrroli-dine-3-carboxamide] |
| 0.48 µM | CCc1cc(Nc2nccn3c(-c4ccc(OC)c(F)c4F)cnc23)ccc1C(=O)NCC1CCCN1 (stereo not drawn) [Example 527, 4-((3-(2,3-difluoro-4-methoxyphenyl)imidazo[1,2-a]pyrazin-8-yl)amino)-2-ethyl-N-(pyrrolidin-2-ylmethyl)benzamide hydrochloride] |
| 0.14 µM | COc1ccc(-c2cnc3c(Nc4ccc(C(=O)N[C@H](C)CNC(=N)C(C)C)c(C)c4)nccn23)c(F)c1F [Example 498, 4-[[3-(2,3-difluoro-4-methoxyphenyl)imidazo[1,2-a]pyrazin-8-yl]amino]-2-methyl-#N!-[(2#R!)-1-(2-methylpropanimidoylamino)propan-2-yl]benzamide] |
| 0.19 µM | CCc1cc(Nc2nccn3c(-c4ccc(OC)c(F)c4F)cnc23)ccc1C(=O)N[C@H](C)CCNC(=O)[C@@H](N)CCCNC(=N)N [Example 375, N-[(2R)-4-[[(2S)-2-amino-5-carbamimidamidopentanoyl]amino]butan-2-yl]-4-[[3-(2,3-difluoro-4-methoxyphenyl)imidazo[1,2-a]pyrazin-8-yl]amino]-2-ethylbenzamide] |
| 0.6 µM | CCc1cc(Nc2nccn3c(-c4ccc(Oc5ccc(F)cn5)c(F)c4F)cnc23)ccc1C(=O)NCCNC(=O)CCN [Example 425, N-[2-(3-aminopropanoylamino)ethyl]-4-[[3-[2,3-difluoro-4-[(5-fluoro-2-pyridyl)oxy]phenyl]imidazo [1,2-a]pyrazin-8-yl]amino]-2-ethyl-benzamide; formic acid] |
